Patent US6399567B1, “Cyclic hexapeptides having antibiotic activity” (Fujisawa Pharmaceutical Co., Ltd., priority 1996, dated 2002)

Columns and labels:
[1] = Solubility (physico-chemical properties)
[2] = system: Aspergillus fumigatus FP1305; experiment: Antimicrobial activity, serial broth dilution method (96-well microtiter plate); assay type: cell-based; conditions: yeast nitrogen base dextrose medium, 1×10^5 cfu/ml, 37° C. for 24 hours, microscopic observation
Procedure: (§1) Test (Antimicrobial activity):
(§2) Test Compound The object compound of Example 1
(§3) Antimicrobial activity of the object compound of Example 1 was determined by a serial broth dilution method using 96-well microtiter plate in 100 μl of MEM (Eagle's minimum essential medium) for Candida albicans and in 100 μl of yeast nitrogen base dextrose medium for both Asperaillus fumigatus and Cryptococcus neoformans. The inoculum was adjusted to 1×10^5 colony forming units/ml. Candida albicans and Asperaillus fumigatus were cultured at 37° C. for 24 hours and Cryptococcus neoformans was cultured at 37° C. for 48 hours in 5% CO2 incubator. After incubation, the growth inhibition of microorganisms in each well was determined by microscopic observation. The results were shown as MEC (minimum effective concentration: μg/ml) value (Table 2).

Candida albicans FP633 = experiment: as above; assay type: cell-based; conditions: MEM, 1×10^5 cfu/ml, 37° C. for 24 hours, microscopic observation
Procedure: as §1, §2, §3

Row | Structure (SMILES) | Solubility ([1]; acetone) | Solubility ([1]; chloroform) | Solubility ([1]; ethyl acetate) | Solubility ([1]; methanol) | Solubility ([1]; water) | MEC (minimum effective concentration) [2] [µg/mL] | MEC (minimum effective concentration) (Candida albicans FP633) [µg/mL] | melting point
1 | CCCCCCCCCCCCCCCC(=O)NC1CC(O)C(O)NC(=O)C2C(O)CCN2C(=O)C(C(O)CC(N)=O)NC(=O)C(C(O)C(O)c2ccc(O)c(OS(=O)(=O)[O-])c2)NC(=O)C2CC(O)CN2C(=O)C(C(C)O)NC1=O.[Na+] (stereo not drawn) [Example 1] | slightly soluble | insoluble | slightly soluble | soluble | soluble | 0.08 | 0.04 | 165 to 170 °C (dec.)
2 | CC(O)C1NC(=O)C(N)CC(O)C(O)NC(=O)C2C(O)CCN2C(=O)C(C(O)CC(N)=O)NC(=O)C(C(O)C(O)c2ccc(O)c(OS(=O)(=O)O)c2)NC(=O)C2CC(O)CN2C1=O (stereo not drawn) [Example 2] |  |  |  |  |  |  |  | 150 to 155 °C
